Where a SMILES comes first, the peptide text is derived from it. Bridges are numbered along the chain shown (N, C = ends).
Key:
[1] = Stability in Hanks' balanced salt solution (HBSS); format: physicochemical; conditions: 37° C., relative to initial conc. in HBSS = 100.00
Experimental: (§1) The stability of the NAP derivatives prepared by EXAMPLE 1 was measured with the system of human colon cancer cell, Caco-2 cell. Caco-2 cells (1×10^5 cells) were first seeded into a polycarbonate film on the upper layer of a 12-well Transwell and incubated for 18 to 26 days at 37° C. The TEER of the Caco-2 cell monolayer was measured over 350 Ω×cm^2. The stability of the NAP derivatives in the Hanks' balanced salt solutions (HBSS) was measured by the concentration changes of NAP and the NAP derivatives incubated in the HBSS at 37° C. for 4 hours. The stability of the NAP derivatives in the Caco-2 cell system was measured by the procedure described below. NAP and the NAP derivatives in the HBSS were added into the upper layer of the Caco-2 cell-seeded Transwell. After 4-hour incubation, the concentration of NAP and the NAP derivatives in the upper and lower layers was measured and analyzed in comparison with the initial concentration (500 μM) by reverse HPLC at 210 nm.

Caco-2 cell = assay: Stability in the Caco-2 cell system; format: in vitro ADME, human; conditions: 4-hour incubation in Caco-2 Transwell; relative to initial conc. = 100.00 (500 μM)
Experimental: as §1

Caco-2 cell monolayer = assay: Permeation to Caco-2 cell monolayer; format: in vitro ADME, human; design: unit not given here; conditions: 4-hour incubation, initial concentration 500 μM in upper layer
Experimental: The permeation of NAP and the NAP derivatives was examined using the Caco-2 cell system. Caco-2 cells (1×10^5 cells) were seeded into the polycarbonate film on the upper layer of a 12-well Transwell and incubated at 37° C. for 18 to 26 days. The TEER of the Caco cell monolayer was measured over 350 Ω×cm^2. NAP and the NAP derivatives in the HBSS were added into the upper layer of the Caco-2 cell-seeded Transwell. After 4-hour incubation, the concentration of NAP and the NAP derivatives in the upper and lower layers was measured and analyzed in comparison with the initial concentration (500 μM) by reverse phase HPLC at 210 nm.

| Compound | Conc. after 4-hour in HBSS [1] | Conc. after 4-hour in Caco-2 cells (Caco-2 cell) | Conc. at the lover layer (Caco-2 cell monolayer) |
| --- | --- | --- | --- |
| CCCC(=O)N[C@@H](CC(N)=O)C(=O)N[C@@H](C)C(=O)N1CCC[C@H]1C(=O)N[C@H](C(=O)N[C@@H](CO)C(=O)N[C@H](C(=O)N1CCC[C@H]1C(=O)N[C@@H](CCC(N)=O)C(N)=O)[C@@H](C)CC)C(C)C [BMEC-NAP0201, Butyryl-NAPVSIPQ-NH2] | 100.39 | 94.18 | 0.12 |
| CC[C@H](C)[C@@H]1NC(=O)[C@H](CO)NC(=O)[C@H](C(C)C)NC(=O)[C@@H]2CCCN2C(=O)[C@H](C)NC(=O)[C@H](CC(N)=O)NC(=O)[C@H](CCC(N)=O)NC(=O)[C@@H]2CCCN2C1=O [BMEC-NAP0301, Cyclo-(NAPVSIPQ)] | 100.72 | 94.72 | 0.35 |
| CC[C@H](C)[C@@H]1NC(=O)[C@H](CO)NC(=O)[C@H](C(C)C)NC(=O)[C@@H]2CCCN2C(=O)[C@H](C)NC(=O)[C@H](CC(N)=O)NC(=O)[C@@H](N)CSSC[C@@H](C(=O)O)NC(=O)[C@H](CCC(N)=O)NC(=O)[C@@H]2CCCN2C1=O [BMEC-NAP0302] (H-CNAPVSIPQC-OH; disulfide 1-10; N-terminus and C-terminus assumed) |  | 81.33 | 1.28 |
| CC[C@H](C)[C@H](NC(=O)[C@H](CO)NC(=O)[C@@H](NC(=O)[C@@H]1CCCN1C(=O)[C@H](C)NC(=O)[C@H](CC(N)=O)NC(=O)OCC(C)C)C(C)C)C(=O)N1CCC[C@H]1C(=O)N[C@@H](CCC(N)=O)C(=O)O [BMEC-NAP0401, iBu-OCO-NAPVSIPQ-OH] | 100.02 | 52.63 | 0.24 |
| CCCCC(CC)COC(=O)N[C@@H](CC(N)=O)C(=O)N[C@@H](C)C(=O)N1CCC[C@H]1C(=O)N[C@H](C(=O)N[C@@H](CO)C(=O)N[C@H](C(=O)N1CCC[C@H]1C(=O)N[C@@H](CCC(N)=O)C(=O)O)[C@@H](C)CC)C(C)C (stereo partly shown) [BMEC-NAP0402, iOct-OCO-NAPVSIPQ-OH] |  | 18.92 | 2.02 |
| CCCCCCOC(=O)N[C@@H](CC(N)=O)C(=O)N[C@@H](C)C(=O)N1CCC[C@H]1C(=O)N[C@H](C(=O)N[C@@H](CO)C(=O)N[C@H](C(=O)N1CCC[C@H]1C(=O)N[C@@H](CCC(N)=O)C(=O)O)[C@@H](C)CC)C(C)C [BMEC-NAP0404, nHex-OCO-NAPVSIPQ-OH] | 99.16 | 29.87 | 2.00 |
| CC[C@H](C)[C@H](NC(=O)[C@H](CO)NC(=O)[C@@H](NC(=O)[C@@H]1CCCN1C(=O)[C@H](C)NC(=O)[C@H](CC(N)=O)NC(=O)OCC(C)C)C(C)C)C(=O)N1CCC[C@H]1C(=O)N[C@@H](CCC(N)=O)C(N)=O [BMEC-NAP0501, iBu-OCO-NAPVSIPQ-NH2] | 100.17 | 87.00 | 0.76 |
| CCCCC(CC)COC(=O)N[C@@H](CC(N)=O)C(=O)N[C@@H](C)C(=O)N1CCC[C@H]1C(=O)N[C@H](C(=O)N[C@@H](CO)C(=O)N[C@H](C(=O)N1CCC[C@H]1C(=O)N[C@@H](CCC(N)=O)C(N)=O)[C@@H](C)CC)C(C)C (stereo partly shown) [BMEC-NAP0502, iOct-OCO-NAPVSIPQ-NH2] |  | 82.37 | 1.39 |
| CCCCOC(=O)N[C@@H](CC(N)=O)C(=O)N[C@@H](C)C(=O)N1CCC[C@H]1C(=O)N[C@H](C(=O)N[C@@H](CO)C(=O)N[C@H](C(=O)N1CCC[C@H]1C(=O)N[C@@H](CCC(N)=O)C(N)=O)[C@@H](C)CC)C(C)C [BMEC-NAP0503, nBu-OCO-NAPVSIPQ-NH2] | 99.77 | 85.89 | 0.60 |
| CCCCCCOC(=O)N[C@@H](CC(N)=O)C(=O)N[C@@H](C)C(=O)N1CCC[C@H]1C(=O)N[C@H](C(=O)N[C@@H](CO)C(=O)N[C@H](C(=O)N1CCC[C@H]1C(=O)N[C@@H](CCC(N)=O)C(N)=O)[C@@H](C)CC)C(C)C [BMEC-NAP0504, nHex-OCO-NAPVSIPQ-NH2] | 100.22 | 82.71 | 0.49 |
| CCCCCCCCOC(=O)N[C@@H](CC(N)=O)C(=O)N[C@@H](C)C(=O)N1CCC[C@H]1C(=O)N[C@H](C(=O)N[C@@H](CO)C(=O)N[C@H](C(=O)N1CCC[C@H]1C(=O)N[C@@H](CCC(N)=O)C(N)=O)[C@@H](C)CC)C(C)C [BMEC-NAP0505, nOct-OCO-NAPVSIPQ-NH2] | 93.41 | 76.83 | 0.65 |
| CC[C@H](C)[C@H](NC(=O)[C@H](CO)NC(=O)[C@@H](NC(=O)[C@@H]1CCCN1C(=O)[C@H](C)NC(=O)[C@H](CC(N)=O)NC(=O)c1cccc2ccccc12)C(C)C)C(=O)N1CCC[C@H]1C(=O)N[C@@H](CCC(N)=O)C(=O)O [BMEC-NAP0702, α-Naphthoyl-NAPVSIPQ-OH] | 96.55 | 61.61 | 0.27 |
| CC[C@H](C)[C@H](NC(=O)[C@H](CO)NC(=O)[C@@H](NC(=O)[C@@H]1CCCN1C(=O)[C@H](C)NC(=O)[C@H](CC(N)=O)NC(=O)c1cccs1)C(C)C)C(=O)N1CCC[C@H]1C(=O)N[C@@H](CCC(N)=O)C(=O)O [BMEC-NAP0704, 2-Thiophenecarbonyl-NAPVSIPQ-OH] | 99.88 | 73.69 | 0.24 |
| CC[C@H](C)[C@H](NC(=O)[C@H](CO)NC(=O)[C@@H](NC(=O)[C@@H]1CCCN1C(=O)[C@H](C)NC(=O)[C@H](CC(N)=O)NC(=O)OCc1ccccc1)C(C)C)C(=O)N1CCC[C@H]1C(=O)N[C@@H](CCC(N)=O)C(=O)O [BMEC-NAP0705, Cbz-NAPVSIPQ-OH] | 100.00 | 72.93 | 0.21 |
| CC[C@H](C)[C@H](NC(=O)[C@H](CO)NC(=O)[C@@H](NC(=O)[C@@H]1CCCN1C(=O)[C@H](C)NC(=O)[C@H](CC(N)=O)NC(=O)c1ccccc1)C(C)C)C(=O)N1CCC[C@H]1C(=O)N[C@@H](CCC(N)=O)C(N)=O [BMEC-NAP0801, Benzoyl-NAPVSIPQ-NH2] | 99.88 | 92.58 | 0.33 |
| CC[C@H](C)[C@H](NC(=O)[C@H](CO)NC(=O)[C@@H](NC(=O)[C@@H]1CCCN1C(=O)[C@H](C)NC(=O)[C@H](CC(N)=O)NC(=O)c1cccc2ccccc12)C(C)C)C(=O)N1CCC[C@H]1C(=O)N[C@@H](CCC(N)=O)C(N)=O [BMEC-NAP0802, α-Naphthoyl-NAPVSIPQ-NH2] | 100.00 | 88.68 | 0.34 |
| CC[C@H](C)[C@H](NC(=O)[C@H](CO)NC(=O)[C@@H](NC(=O)[C@@H]1CCCN1C(=O)[C@H](C)NC(=O)[C@H](CC(N)=O)NC(=O)c1cccs1)C(C)C)C(=O)N1CCC[C@H]1C(=O)N[C@@H](CCC(N)=O)C(N)=O [BMEC-NAP0804, 2-Thiophenecarbonyl-NAPVSIPQ-NH2] | 98.62 | 92.09 | 0.31 |
| CC[C@H](C)[C@H](NC(=O)[C@H](CO)NC(=O)[C@@H](NC(=O)[C@@H]1CCCN1C(=O)[C@H](C)NC(=O)[C@H](CC(N)=O)NC(=O)OCc1ccccc1)C(C)C)C(=O)N1CCC[C@H]1C(=O)N[C@@H](CCC(N)=O)C(N)=O [BMEC-NAP0805, Cbz-NAPVSIPQ-NH2] | 98.58 | 89.54 | 0.27 |
| CC[C@H](C)[C@H](NC(=O)[C@H](CO)NC(=O)[C@@H](NC(=O)[C@@H]1CCCN1C(=O)[C@H](C)NC(=O)[C@H](CC(N)=O)NC(=O)c1ccc2c(c1)C(=O)OC21c2ccc(O)cc2Oc2cc(O)ccc21)C(C)C)C(=O)N1CCC[C@H]1C(=O)N[C@@H](CCC(N)=O)C(=O)O [BMEC-NAP9901, 5(6)FAM-NAPVSIPQ-OH] |  | 81.63 | 0.77 |
| Adipyl-NAPVSIPQ-NH2 [BMEC-NAP0202] | 98.38 | 95.59 | 0.82 |
| H-NAPISIPQ-OH [BMEC-NAP0604, H-NAPISIPQ-OH] | 103.83 | 23.89 |  |
| H-NAPVSIPAQ-OH [BMEC-NAP0601, H-NAPVSIPAQ-OH] |  |  | 0.07 |
| H-NAPVSLPQ-OH [BMEC-NAP0606, H-NAPVSLPQ-OH] | 99.42 | 11.54 |  |
| H-NAPVSVPQ-OH [BMEC-NAP0605, H-NAPVSVPQ-OH] | 104.25 | 27.76 |  |
| H-QAPVSIPQ-OH [BMEC-NAP0602, H-QAPVSIPQ-OH] | 104.94 | 21.81 |  |
| H-QAPVSVPAQ-OH [BMEC-NAP0607, H-QAPVSVPAQ-OH] | 97.33 | 16.54 |  |
